Reference: patent US10138265B2, “Uridine nucleoside derivatives, compositions and methods of use” (Tufts University, priority 2013, dated 2018)
Like-named read-outs stand apart in the source and are kept apart here. One block for each molecule: values may come before it.

Assays:
P2Y2 receptor = biological target: T1, P2Y2 receptor (Homo sapiens, UniProt P41231); experiment: Ca2+ mobilizing effect (fluo-4) in 1321N1 astrocytoma cells expressing P2Y2; format: cell-based; conditions: 1321N1 human astrocytoma cells expressing P2Y2
T1 construct: expressed in transfected cells; host or cells: 1321N1 human astrocytoma cells
Method: (§1) Synthetic ligands were tested for activation of P2Y6 receptor by measuring receptor induced Ca^2+ changes with the fluorescent Ca^2+ indicator fluo-4. 1321N1 human astrocytoma cell lines either expressing P2Y2, P2Y4 or P2Y6 receptors were plated into 24-well plates. Two days after plating, fluorometric measurements were made and responses of cells to a serial dilution of ligands were determined P2Y6 receptor mediated Ca^2+ fluorescent change was determined by normalized accumulation of fluorescent change of 3 timepoints after ligand administration subtracted by value from ACSF control. Changes in fluorescent intensity were plotted corresponding to ligand concention in GraphPad. Dose-response curve and EC50 for each ligand was estimated using nonlinear curve fit and Sigmoidal dose-response analysis. […]
(§2) Synthetic ligands were tested for activation of P2Y6 receptor by measuring receptor induced Ca^2+ changes with the fluorescent Ca^2+ indicator fluo-4, and results are shown in FIG. 10(A)-(K). […] Two days after plating, fluorometric measurements were made and responses of cells to a serial dilution of ligands were determined P2Y6 receptor mediated Ca^2+ fluorescent change was determined by normalized accumulation of fluorescent change of 3 timepoints after ligand administration subtracted by value from ACSF control. […]

P2Y4 receptor = biological target: T2, P2Y4 receptor (Homo sapiens, UniProt P51582); experiment: Ca2+ mobilizing effect (fluo-4) in 1321N1 astrocytoma cells expressing P2Y4; format: cell-based; conditions: 1321N1 human astrocytoma cells expressing P2Y4
T2 construct: expressed in transfected cells; host or cells: 1321N1 human astrocytoma cells
Method: as §1, §2

P2Y6 receptor [1] = biological target: T3, P2Y6 receptor (Homo sapiens, UniProt Q15077); experiment: Activation of P2Y6 receptor: receptor induced Ca2+ changes with fluo-4 in 1321N1 astrocytoma cells; format: cell-based; parameters: expressed in transfected cells; host or cells: 1321N1 human astrocytoma cells
Method: as §1, §2

PSAPP mice [2] = experiment: Postmortem immunohistochemistry of plaque load in cortex and hippocampus; format: in vivo, mouse
Method: Mice were perfused transcardially with 4% paraformaldehyde and 40 μm Coronal sections were collected. Sections were sequentially incubated in 0.3% H2O2 for 10 minutes, blocking solution for 2 hrs, blocking solution containing the primary antibody (rabbit anti-beta 1-42; rabbit anti-beta1-40, from Chemicon International and rat anti-CD45) for 48 hours at 4° C., and blocking solution containing biotinylated antibody or fluorescently-labeled antibody for 2 hours at room temperature. Sections were visualized in a bright field microscope or a confocal microscope, and the optical density was obtained using MetaMorph software.
After repeated imaging, brains were fixed and subjected to postmortem immunohistochemistry with amyloid beta specific antibodies β1-40 and β1-42 to evaluate the plaque load (area occupied by immunostaining of plaque) in cortex and hippocampus.
(§3) PSB0474 was systemically administered to PSAPP mice via intraperitoneal injection for 2, 4 and 6 consecutive days. In one group, prior to evaluation and following to administration for 6 consecutive days, treatment was suspended for two weeks (6+2 weeks group). Brains were then fixed and plaque load was evaluated by immunostaining with the amyloid beta specific antibodies: β1-40 and β1-42. Representative images of plaque load in cortex and hippocampus from animals that received injections of PSB0474 according to the foregoing injection schedules are shown in FIG. 5(A)-(D). […] Whereas, when administration of PSB0474 was stopped for 2 weeks following six consecutive days of treatment (denoted as the 6+2 weeks group), β1-40 staining rebounded; although to a level lower than observed in mice treated with saline as a vehicle control. FIGS. 6A and 6B depict the reduction in plaque load (%) the cortex and hippocampus, respectively, in PSAPP mice after treatment with 3-phenacyl-UDP for 2, 4, or 6 consecutive days, as assayed by staining with the β1-40 antibody. FIGS. 6C-6F depict data obtained following administration of different dosages of PSB0474.
To generate these graphs showing plaque load, mice were euthanized, brain sections cut and antibodies directed against Aβ42 were used to disclose Aβ plaques. Images were acquired digitally and an algorithm was applied to threshold the image so that plaques were isolated from the background. The algorithm then calculated the percent area of the field of view occupied by the plaques.
Brain samples were collected for Abeta analysis with immunostaining. Brains samples were collected after transcardial perfusion with phosphate buffer and 4% paraformaldehyde. Floating brain sections (40 µm) were collected using a microtome. Immunostaining for Aβ40 and Aβ42 were performed according to previously established protocol. Images with DAB staining were collected with brightfield microscopy and analyzed with ImageJ Macro. All data analysis and statistics were performed in GraphPad Prism 6.0.

PSAPP mice [3] = experiment: Contextual fear conditioning test (freezing behavior); format: in vivo, mouse
Method: On day one, animals were trained in a fear conditioning apparatus for a total of 7 minutes with a two-pairing paradigm of cue and mild foot shock (a 30-s acoustic-conditioned stimulus, 80 dB; a 2-s shock stimulus, 0.5 mA). To evaluate contextual fear learning, the animals were returned to the training context 24 hours post-training, and freezing behavior was scored for 5 minutes. Freezing behavior was monitored by MotorMonitor (Hamilton Kinder) and scored every 5 seconds.
In this study, the fear conditioning associative learning paradigm was used as a rapid cognition assay for PSAPP mice. This study allowed us to probe cognitive function with a single training day followed in 24 hours by tests for contextual and cued fear learning. Contextual fear learning is dependent upon a brain area that has been implicated as a locus for cognitive decline in AD: the hippocampus. Two pairings of CS—US for fear conditioning were followed 24 hours later by testing for contextual and cued fear learning. Previous studies have reported that PSAPP animals appear to have a selective hippocampus-dependent impairment in associative learning following two pairings of conditioned stimuli for fear conditioning.
This represents a decrease in the cognitive impairment observed in the untreated mice.

PSAPP mice [4] = experiment: Tolerability of a higher dose in the plaque burden study; format: in vivo, mouse; conditions: 1000× increase in dose
Method: as §3

P2Y6 receptor [5] = biological target: T3, P2Y6 receptor; conditions: cited from earlier work
PSAPP mice [6] = experiment: Two-photon in vivo imaging of methoxyX04 labeled amyloid plaques in barrel cortex; parameters: species or system mouse; conditions: acute i.c.v. treatment
Excerpt: In this study, PSAPP mice were anesthetized using isoflurane and a thin-skull preparation was used to minimize the surface damage. Amyloid plaques were visualized with methoxyX04 labeling and blood plasma was labeled with Rhodamine dextran to facilitate re-localization of the same imaging area. Stack images were obtained using a two-photon system (Prairie Technologies) with excitation at 850 nm. The emission was detected by external photomultiplier tubes (525/70; DLCP 575; 607/45 nm). Animals were anesthetized and immobilized in a stereotaxic frame. For each injection, 1 μl of 10 mM UDP or other suitable compounds in artificial cerebrospinal fluid (ACSF) as the vehicle were injected intraventricularly using the following coordinates: AP 0.2 mm, ML 1 mm, and DV 2.2 mm. To evaluate the effect of UDP on plaque burden, two-photon microscopy was used to assess the amyloid plaques in the barrel cortex in living PSAPP mice. Amyloid plaques were stained by systemically administered methoxy-[…]. One day prior to imaging, PSAPP mice were injected with methoxyX04 to label the amyloid plaques. On the imaging day, to facilitate the re-location of the same imaging area, blood plasma was labeled with Rhodamine dextran. Images were obtained from the same start- and end-point to ensure the same image volume. The results were shown in a maximum intensity projection of a fluorescent stack containing 45 planes. Representative images of methoxyX04 labeled amyloid plaques and angiopathy on days 1 are shown in FIG. 1(A)-(C) Immediately after imaging, animals were injected with ACSF or UDP intracerebroventricularly (i.c.v.) and allowed to recover. On day 4, animals were subjected to a second period of imaging of the same regions studied on day 1 and the results are shown in FIG. 1(D)-(F). The similar pattern of angiopathy (shown by open arrows) indicated the same imaging area.

PSAPP mice [7] = experiment: Hippocampal long-term potentiation (LTP) recording; format: in vivo, mouse; conditions: acute treatment
Method: Hippocampal slices (350 μm thick) were prepared from 6-month-old PSAPP mice. Baseline responses were obtained every 10 seconds and Input-output (I/O) curves, paired-pulse modification and LTP were successively measured. The stimulation intensity was set to a level that gives a value of 30% of the maximum obtained. LTP were induced by high frequency stimulation (HFS, 100 pulses at 100 Hz, four times) or by theta-burst stimulation (TBS, 10 bursts at 5 Hz, repeated 10 times in 15 s intervals).
Accumulated evidence has shown that amyloid peptides naturally secreted or isolated from Alzheimer's brains impair synaptic plasticity, especially hippocampal long-term potentiation (Walsh et al., 2002). Therefore, we further performed LTP recordings in PASPP mice and investigated whether P2Y6 receptor-mediated plaque clearance affects synaptic plasticity. […] First, it was observed that LTP at the schaffer collateral synapse within the CA1 region was depressed in PSAPP mice, as compared with littermates (FIG. 8(A)).

PSAPP mice [8] = experiment: Postmortem immunohistochemistry of plaque load in cortex and hippocampus; format: in vivo, mouse; remark: listed apart in the source
Oral bioavailability = conditions: in vivo
[9] = Half-life in human whole blood; format: in vitro ADME
[10] = barrel cortex, day 4 vs day 1, P<0.01
[11] = 10 ug/kg i.p. once per day for 7 days, PS1/APP mice, cortex

T3 sequence (Q15077 whole entry): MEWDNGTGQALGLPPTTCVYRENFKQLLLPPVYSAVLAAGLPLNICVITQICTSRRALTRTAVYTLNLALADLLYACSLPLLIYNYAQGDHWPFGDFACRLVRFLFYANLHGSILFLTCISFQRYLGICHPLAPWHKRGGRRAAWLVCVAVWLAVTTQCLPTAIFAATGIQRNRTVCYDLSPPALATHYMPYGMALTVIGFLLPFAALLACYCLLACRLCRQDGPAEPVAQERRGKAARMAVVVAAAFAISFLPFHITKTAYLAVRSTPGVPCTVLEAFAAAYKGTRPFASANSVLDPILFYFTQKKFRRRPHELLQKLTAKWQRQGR
T2 sequence (P51582 whole entry): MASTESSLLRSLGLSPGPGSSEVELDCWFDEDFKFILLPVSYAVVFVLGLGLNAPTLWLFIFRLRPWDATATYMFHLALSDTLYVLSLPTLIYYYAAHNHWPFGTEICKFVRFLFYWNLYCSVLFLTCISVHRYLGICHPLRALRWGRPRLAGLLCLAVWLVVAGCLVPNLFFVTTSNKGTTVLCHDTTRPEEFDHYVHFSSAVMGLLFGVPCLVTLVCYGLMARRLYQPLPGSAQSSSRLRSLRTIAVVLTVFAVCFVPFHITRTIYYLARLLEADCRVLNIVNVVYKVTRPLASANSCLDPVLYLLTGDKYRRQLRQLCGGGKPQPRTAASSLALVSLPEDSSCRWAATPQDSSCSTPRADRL
T1 sequence (P41231 whole entry): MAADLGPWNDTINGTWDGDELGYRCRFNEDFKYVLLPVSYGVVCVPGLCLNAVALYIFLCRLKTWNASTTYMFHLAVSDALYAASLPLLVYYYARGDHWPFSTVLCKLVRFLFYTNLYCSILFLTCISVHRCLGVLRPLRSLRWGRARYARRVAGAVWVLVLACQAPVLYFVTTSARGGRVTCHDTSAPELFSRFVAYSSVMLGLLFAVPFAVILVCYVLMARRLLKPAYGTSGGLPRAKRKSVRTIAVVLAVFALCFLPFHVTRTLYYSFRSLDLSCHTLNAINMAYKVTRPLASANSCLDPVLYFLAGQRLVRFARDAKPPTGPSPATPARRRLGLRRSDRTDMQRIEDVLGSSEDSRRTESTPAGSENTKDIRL

- elevating Ca2+ levels in P2Y2 receptor expressing cells (P2Y2 receptor): not effective
- elevating Ca2+ levels in P2Y4 receptor expressing cells (P2Y4 receptor): not effective
- EC50 (P2Y6 receptor [1]; 1321N1 human astrocytoma cells expressing P2Y6, fluo-4 Ca2+): 12 nM
- ability to elevate Ca2+ signals in P2Y6 receptor expressing cells on addition of P2Y6 antagonist MRS2578 (P2Y6 receptor [1]; with MRS2578): attenuated
SMILES: O=c1ccn([C@@H]2O[C@H](COP(=O)(O)OP(=O)(O)O)[C@@H](O)[C@H]2O)c(=O)n1Cc1noc2ccccc12

SMILES: O=C(Cn1c(=O)ccn([C@@H]2O[C@H](COP(=O)(O)OP(=O)(O)O)[C@@H](O)[C@H]2O)c1=O)c1ccccc1 [3-phenacyl-UDP]
- effects on the efficacy endpoint at the higher dose (PSAPP mice [2]; 1 mg/kg, one week daily): smaller effects
- β1-40 staining after treatment stopped (PSAPP mice [2]; 6 consecutive days i.p., then stopped for 2 weeks (6+2 weeks group), level lower than saline control): rebounded
- immunoreactivity of β1-40 in both cortex and hippocampus (PSAPP mice [2]; i.p. for 4 and 6 consecutive days): significantly decreased
- total freezing percentage in context test (PSAPP mice [3]; chronic injection, two doses): increased
- detrimental effects to the animal (PSAPP mice [4]): did not cause detrimental effects
- selectivity for P2Y6 receptor (P2Y6 receptor [5]): > 500 fold
- EC50 (P2Y6 receptor [5]; read-out: EC50, P2Y6 receptor agonist): 70 nM

SMILES: O=c1ccn([C@@H]2O[C@H](COP(=O)(O)OP(=O)(O)O)[C@@H](O)[C@H]2O)c(=O)[nH]1 [UDP, uridine diphosphate]
- reduction in plaque load (PSAPP mice [6]; [10]): 17.2%
- reduction in the number of plaques (PSAPP mice [6]; [10]): 12.6%
- reduction in cross-sectional area of individual identified plaques (PSAPP mice [6]; second imaging session, P<0.01): 18.2%
- decrease in plaque load, cortex (PSAPP mice [2]; β1-40 antibody staining, cortex, acute i.c.v., p<0.05): 60%
- decrease in plaque load, hippocampus (PSAPP mice [2]; β1-40 antibody staining, hippocampus, acute i.c.v., p<0.01): 62%
- decrease in plaque load, cortex (PSAPP mice [2]; β1-42 antibody staining, cortex, acute i.c.v., P<0.01): 48%
- total freezing percentage (PSAPP mice [3]; acute i.c.v. treatment, ACSF control 18%±3%): 49%±5%
- LTP at CA1 of hippocampus compared with ACSF (PSAPP mice [7]; HFS): significantly increased
- field excitatory postsynaptic potential (fEPSP), last 15 min potentiation (PSAPP mice [7]; comparable to littermates): significant increase
- decrease in plaque load, hippocampus (PSAPP mice [8]; β1-42 antibody staining, hippocampus, acute i.c.v., P<0.05): 47%

- bioavailability (Oral bioavailability): 72.2%
- half-life [9]: 16.4 h
SMILES: O=c1ccn([C@@H]2O[C@H](CO)[C@H](O)C2O)c(=O)n1Cc1noc2ccccc12 (some centres unmarked) [compound 5]
- size distribution of remaining plaques (PSAPP mice [2]; 10 ug/kg i.p. once per day for 7 days, PS1/APP mice): significantly reduced
- Aβ42 plaque burden (PSAPP mice [2]; [11]): significantly reduced
- Aβ40 plaque burden (PSAPP mice [8]; [11]): significantly reduced
